Test results reported in ChEMBL document CHEMBL5137013 (Eur J Med Chem, 2022).
Activity calls are given as the source filed them. No cut-off for these calls is given here.

Legend:
A549 [1] = assay: Cytotoxicity against human A549 cells assessed as reduction in cell viability measured after 24 hrs by MTT assay; conditions: A549, 24 h
A549 [2] = assay: Antimigratory activity against human A549 cells assessed as reduction in scratch wound recovery measured after 24 hrs by scratch wound healing assay; assay type: functional, cell-based; conditions: dose 15-250 nM, DDE = dose-dependent effect
HUVEC = assay: Antiangiogenic activity in HUVEC assessed as inhibition of tube formation at 12.5 to 50 nM incubated for 24 hrs by matrigel assay; assay type: functional, cell-based; conditions: Homo sapiens, dose 12.5-50 nM
[3] = Toxicity in human HT-29 cells xenografted BALB/c nude mouse assessed as effect on liver at 5 to 10 mg/kg, ip administered as 2 days interval for 3 weeks and measured 3 weeks post-initial dosing by H and E staining based histopathological analysis; assay type: organism-based; conditions: in vivo, 504 h, dose 5-10 mg/kg
[4] = Cmax in Sprague-Dawley rat at 10 mg/kg, iv by HPLC-MS/MS analysis; assay type: ADME, organism-based; design: dose 10 mg/kg, route iv; conditions: in vivo
A549 [5] = assay: Antimigratory activity against human A549 cells assessed as reduction in scratch wound recovery at 60 nM measured after 24 hrs by scratch wound healing assay relative to control; assay type: functional; design: scale not given: the % may be the effect or the level left
HT-29 [6] = assay: Inhibition of colony formation in human HT-29 cells at 100 nM measured after 24 hrs by crystal violet staining based assay; assay type: functional
[7] = Toxicity in human HT-29 cells xenografted BALB/c nude mouse assessed as effect on spleen at 5 to 10 mg/kg, ip administered as 2 days interval for 3 weeks and measured 3 weeks post-initial dosing by H and E staining based histopathological analysis; assay type: organism-based; conditions: in vivo, 504 h, dose 5-10 mg/kg
HT-29 [8] = assay: Induction of apoptosis in human HT-29 cells assessed as up regulation of phosphorylated Bcl-2 expression at 25 to 100 nM measured after 24 hrs by Western blot analysis; assay type: functional, cell-based; conditions: dose 25-100 nM
[9] = Cytotoxicity against human MCF7/TxR cells assessed as reduction in cell viability measured after 24 hrs by MTT assay; assay type: functional, cell-based
HT-29 [10] = assay: Induction of apoptosis in human HT-29 cells assessed as down regulation of Bim expression at 25 to 100 nM measured after 24 hrs by Western blot analysis; assay type: functional, cell-based; conditions: dose 25-100 nM
HeLa = assay: Cytotoxicity against human HeLa cells assessed as reduction in cell viability measured after 24 hrs by MTT assay; assay type: functional, cell-based
HT-29 [11] = assay: Induction of mitochondrial dysfunction in human HT-29 cells assessed as increase in green fluorescence intensity measured after 24 hrs by JC-1 staining based JC-1 dye based confocal laser scanning microscopy; assay type: functional, cell-based; conditions: dose 25-100 nM, DDE = dose-dependent effect
[12] = AUC in Sprague-Dawley rat at 10 mg/kg, iv by HPLC-MS/MS analysis; assay type: ADME, organism-based; design: dose 10 mg/kg, route iv; conditions: in vivo
Tubulin (Homo sapiens) [13] = target: T1, Tubulin (Homo sapiens) (UniProt P68371+Q9H4B7+P0DPH7+P68366+Q13509+Q71U36+P04350+Q3ZCM7+P07437+P68363+Q9BQE3+Q6PEY2+Q13885+Q9BVA1+Q9BUF5); assay: Inhibition of tubulin polymerization in human HT-29 cells assessed as up regulation of acetylated-alpha-tubulin expression at 25 to 100 nM measured after 24 hrs by Western blot analysis; assay type: cell-based; conditions: dose 25-100 nM
MCF7 = assay: Cytotoxicity against human MCF7 cells assessed as reduction in cell viability measured after 24 hrs by MTT assay; conditions: MCF7, 24 h
HT-29 [14] = assay: Induction of apoptosis in human HT-29 cells assessed as up regulation of Bax expression at 25 to 100 nM measured after 24 hrs by Western blot analysis; assay type: functional, cell-based; conditions: dose 25-100 nM
HT-29 [15] = assay: Cell cycle arrest in human HT-29 cells assessed as effect on cdc2 expression at 25 to 100 nM measured after 24 hrs by Western blot analysis; assay type: functional, cell-based; conditions: dose 25-100 nM
HT-29 [16] = assay: Induction of apoptosis in human HT-29 cells assessed as increase in PARP expression at 25 to 100 nM measured after 24 hrs by Western blot analysis; assay type: functional, cell-based; conditions: dose 25-100 nM
HT-29 [17] = assay: Cytotoxicity against human HT-29 cells assessed as reduction in cell viability measured after 24 hrs by MTT assay; assay type: functional, cell-based; conditions: HT-29, 24 h
HT-29 [18] = assay: Cell cycle arrest in human HT-29 cells assessed as effect on cdk7 expression at 25 to 100 nM measured after 24 hrs by Western blot analysis; assay type: functional, cell-based; conditions: dose 25-100 nM
[19] = Tmax in Sprague-Dawley rat at 10 mg/kg, iv by HPLC-MS/MS analysis; assay type: ADME, organism-based; conditions: in vivo
HT-29 [20] = assay: Induction of apoptosis in human HT-29 cells assessed as increase in cleaved caspase-9 expression at 25 to 100 nM measured after 24 hrs by Western blot analysis; assay type: functional, cell-based; conditions: dose 25-100 nM
HT-29 [21] = assay: Cell cycle arrest in human HT-29 cells assessed as effect on cyclin B1 expression at 25 to 100 nM measured after 24 hrs by Western blot analysis; assay type: functional, cell-based; conditions: dose 25-100 nM
HT-29 [22] = assay: Cell cycle arrest in human HT-29 cells assessed as increase in cell accumulation at G2/M phase measured after 24 hrs by propidium iodide staining based flow cytometry; assay type: functional; conditions: dose 12.5-100 nM, DDE = dose-dependent effect
[23] = Resistance index, ratio of IC50 for human A549/TxR cells to IC50 for human A549 cells; assay type: functional
HT-29 [24] = assay: Induction of apoptosis in human HT-29 cells assessed as up regulation of Bcl-2 expression at 25 to 100 nM measured after 24 hrs by Western blot analysis; assay type: functional, cell-based; conditions: dose 25-100 nM
HT-29 [25] = assay: Antitumor activity against human HT-29 cells xenografted in ip dosed BALB/c nude mouse assessed as tumor growth inhibition administered at 2 days interval for 3 weeks; assay type: functional, organism-based; conditions: DDE = dose-dependent effect
[26] = Half-life in Sprague-Dawley rat at 10 mg/kg, iv by HPLC-MS/MS analysis; assay type: ADME, organism-based; conditions: in vivo
MDA-MB-231 = assay: Cytotoxicity against human MDA-MB-231 cells assessed as reduction in cell viability measured after 24 hrs by MTT assay; assay type: functional, cell-based; conditions: MDA-MB-231, 24 h
HT-29 [27] = assay: Induction of apoptosis in human HT-29 cells assessed as increase in cleaved PARP expression at 25 to 100 nM measured after 24 hrs by Western blot analysis; assay type: functional, cell-based; conditions: dose 25-100 nM
HT-29 [28] = assay: Induction of apoptosis in human HT-29 cells at 25 to 100 nM measured after 24 hrs by Annexin V-FITC/propidium iodide staining based flow cytometry; assay type: functional, cell-based; conditions: dose 25-100 nM
HT-29 [29] = assay: Cell cycle arrest in human HT-29 cells assessed as effect on cdc25 expression at 25 to 100 nM measured after 24 hrs by Western blot analysis; assay type: functional, cell-based; conditions: dose 25-100 nM
HT-29 [30] = assay: Cell cycle arrest in human HT-29 cells assessed as cell accumulation at G2/M phase at 100 nM measured after 24 hrs by propidium iodide staining based flow cytometry (reference value: 20.9%); assay type: functional
Tubulin (Homo sapiens) [31] = target: T1, Tubulin (Homo sapiens); assay: Displacement of [3H] colchicine from tubulin (unknown origin) at 5 uM measured after 2 hrs by scintillation counting analysis relative to control; assay type: protein-complex assay
HT-29 [32] = assay: Antitumor activity against human HT-29 cells xenografted in BALB/c nude mouse assessed as reduction in tumor weight at 10 mg/kg, ip administered as 2 days interval for 3 weeks and measured 3 weeks post-initial dosing relative to control; assay type: functional; design: scale not given: the % may be the effect or the level left
HT-29 [33] = assay: Inhibition of colony formation in human HT-29 cells at 12.5 nM measured after 24 hrs by crystal violet staining based assay; assay type: functional, cell-based

In the case of COC(=O)c1cc2c(cc1Nc1cc(OC)c(OC)c(OC)c1)OCCO2, the IC50 (A549 [1]) is reported as 240 nM, the Activity (A549 [2]) is reported as “Dde” and the inhibition (HUVEC) is reported as “Active”. The Activity [3] was “Non-Toxic”, the Cmax [4] was 6880 ng/mL and the Activity (A549 [5]) was 85.2%. For the same compound, the inhibition at 0.1 µM (HT-29 [6]) was 100%, the Activity [7] was “Non-Toxic” and the Activity (HT-29 [8]) was “Active”. The IC50 [9] was 180 nM, the Activity (HT-29 [10]) was “Active” and the IC50 (HeLa) was 35 nM. For the same compound, the Activity (HT-29 [11]) was “Dde”, the AUC [12] was 5670 µg/L.hr and the inhibition (Tubulin (Homo sapiens) [13]) was “Active”. For the same compound, the IC50 (MCF7) was 140 nM, the Activity (HT-29 [14]) was “Active” and the Activity (HT-29 [15]) was “Active”. For the same compound, the Activity (HT-29 [16]) was “Active”, the IC50 (HT-29 [17]) was 23 nM and the Activity (HT-29 [18]) was “Active”. For the same compound, the Tmax [19] was 8.4 min, the Activity (HT-29 [20]) was “Active” and the Activity (HT-29 [21]) was “Active”. The Activity (HT-29 [22]) was “Dde”, the “Ratio IC50” value [23] was 1.2 and the Activity (HT-29 [24]) was “Active”. For the same compound, the TGI (HT-29 [25]) was “Dde”, the t1/2 [26] was 104 min and the IC50 (MDA-MB-231) was 100 nM. The Activity (HT-29 [27]) was “Active”, the Activity (HT-29 [28]) was “Active” and the Activity (HT-29 [29]) was “Active”. The Activity (HT-29 [30]) was 87.5%, the inhibition (Tubulin (Homo sapiens) [31]) was 93.5% and the Activity (HT-29 [32]) was 75.5%. The inhibition (HT-29 [33]) was “Active”.
